# Laboratory results from US10738076B2, “Lanosterol prodrug compound and preparation method therefor and use thereof” (ZHONGSHAN OPHTHALMIC CENTER, SUN YAT-SEN UNIVERSITY, priority 2017, dated 2020).
# “Also recorded” adds a separate entry of the source. Where two headings read alike, the source gives them in different places.
# Tests used:
# [1] = ophthalmic drug penetration and drug conversion to lanosterol in vivo (aqueous humor concentration after eye drops); parameters: species or system New Zealand white rabbits
# Experimental: In this study, New Zealand white rabbits (body weight was more than 2 kg, age was more than 12 weeks) were used as experimental animals. Each compound was studied with two New Zealand white rabbits. Each rabbit was instilled with […] eye drops in each eyes three eyes were used to collect aqueous humor samples and one eye was used as a backup. […] After the eye drops was dripped into the rabbit's eyes, the anterior aqueous humor was collected at 0.5, 2, 4 and 6 hours after administration. The volume of each sample was not more than 50 μL. Each animal was given mild anesthesia before collecting samples. Three samples were collected at every time point. The collected aqueous humor samples were stored in dry ice immediately after collection or stored in a refrigerator at −80±10° C. After the sample collection, the animals were euthanized. The concentration of the compound in each sample was determined using a triple quadrupole mass spectrometer (API 4000).
# [2] = tested on: sodium selenite-induced neonatal New Zealand rabbit cataract model; assay: sodium selenite-induced cataract model, slit lamp observation; type: in vivo, neonatal New Zealand rabbits; settings: eye drops right eye 3 times every day, 42 days, compared with pre-dose
# Experimental: (§1) P7 days old neonatal New Zealand rabbits, normal grade, and 5 young rabbits per litter were breast-fed with a mother rabbit.
# (§2) The experimental young rabbits were randomly divided into 5 groups with 5 rabbits per group.
# (§3) 1) Normal control group (NC): in the P10 day, young rabbits were injected subcutaneously with 0.25 mL physiological saline from the neck, and were not administered after the P15 day.
# (§4) 2) Model control group (MC): in the P10 day, young rabbits were injected subcutaneously with sodium selenite solution (in physiological saline) at 20 μmol/kg body weight, and after the P15 day, drug-free blank eyes drops was dripped into the right eye 3 times every day for 42 days.
# (§5) 3) Positive control group (PC): in the P10 day, young rabbits were injected subcutaneously with sodium selenite solution (in physiological saline) at 20 μmol/kg body weight, and after the P15 day, kary uni eye drops (Santen Pharmaceutical Co., Ltd in Japan) was dripped into the right eye 3 times every day for 42 days.
# 4) Lanosterol eye drops treatment group (LT): in the P10 day, young rabbits were injected subcutaneously with sodium selenite solution (in physiological saline) at 20 μmol/kg body weight, and after the P15 day, lanosterol eye drops was dripped into the right eye 3 times every day for 42 days. […]
# [3] = tested on: sodium selenite-induced neonatal New Zealand rabbit cataract model; assay: sodium selenite-induced cataract model, lens transparency test in vitro; type: in vivo, neonatal New Zealand rabbits; settings: after 42 days of administration
# Experimental: as §1, §2, §3, §4, §5
# (§6) 4) Lanosterol eye drops treatment group (LT): in the P10 day, young rabbits were injected subcutaneously with sodium selenite solution (in physiological saline) at 20 μmol/kg body weight, and after the P15 day, lanosterol eye drops was dripped into the right eye 3 times every day for 42 days.
# (§7) 5) Lanosterol prodrug 026 eye drops treatment group (026): in the P10 day, young rabbits were injected subcutaneously with sodium selenite solution (in physiological saline) at 20 μmol/kg body weight, and after the P15 day, lanosterol prodrug 026 eye drops was dripped into the right eye 3 times every day for 42 days.
# 2) Lens transparency test in vitro: on the last day, the animal's eyeball was dissected, the lens containing the capsule was completely separated, and the lens was placed on a grid paper (2.12×2.12 mm).
# [4] = tested on: lens glutathione peroxidase (GSH-PX) activity; assay: sodium selenite-induced cataract model, lens GSH-PX activity assay; type: in vivo, neonatal New Zealand rabbits; settings: after 42 days of administration; for effect on lens GSH-PX activity compared to the other treatment groups: 026 vs kary uni p<0.01
# Experimental: as §1, §2, §3, §4, §5, §6, §7
# (§8) 3) Glutathione peroxidase (GSH-PX) activity assay: GSH-PX activity of the isolated rabbit lens in each group was determined by the method provided in the specification of GSH-PX activity detection kit (Nanjing Jiancheng Bioengineering Institute). The experimental data was analyzed by One-Way ANOVA with SPSS statistical software. The LSD method was used to compare the groups, and the statistical difference level was p<0.05.
# [5] = tested on: ultraviolet-induced New Zealand rabbit cataract model; assay: ultraviolet-induced cataract model, slit lamp observation; type: in vivo, New Zealand rabbits; settings: ultraviolet (313 nm, 24 hours) model, eye drops right eye 3 times every day, 42 days, compared with pre-dose
# Experimental: (§9) Adult New Zealand rabbits 2.0-2.5 kg, normal grade, male and female, a total of 25.
# (§10) The experimental rabbits were randomly divided into 5 groups with 5 rabbits per group.
# (§11) 1) Normal control group (NC): normal feeding, no drug administration.
# (§12) 2) Model control group (MC): 313 nm UV irradiation for 24 hours to make model, then drug-free blank eye drops was dripped to the right eye 3 times every day for 42 days.
# (§13) 3) Positive control group (PC): 313 nm UV irradiation for 24 hours to make model, then kary uni eye drops (Santen Pharmaceutical Co., Ltd in Japan) was dripped into the right eye 3 times every day for 42 days.
# (§14) 4) Lanosterol eye drops treatment group (LT): 313 nm UV irradiation for 24 hours to make model, then lanosterol eye drops was dripped into the right eye 3 times every day for 42 days.
# (§15) 5) Lanosterol prodrug 026 eye drops treatment group (026): 313 nm UV irradiation for 24 hours to make model, then the lanosterol prodrug 026 eye drops was dripped into the right eye 3 times every day for 42 days.
# [6] = tested on: ultraviolet-induced New Zealand rabbit cataract model; assay: ultraviolet-induced cataract model, lens transparency test in vitro; type: in vivo, New Zealand rabbits; settings: after 42 days of administration
# Experimental: as §9, §10, §11, §12, §13, §14, §15
# 2) lens transparency test in vitro: on the last day, the animal's eyeball was dissected, the lens containing the capsule was completely separated, and the lens was placed on a grid paper (2.12×2.12 mm).
# [7] = tested on: lens glutathione peroxidase (GSH-PX) activity; assay: ultraviolet-induced cataract model, lens GSH-PX activity assay; type: in vivo, New Zealand rabbits; settings: after 42 days of administration; for effect on lens GSH-PX activity compared to the other treatment groups: 026 vs kary uni p<0.05
# Experimental: as §9, §10, §11, §12, §13, §14, §15, §8
# [8] = tested on: pre-formed lens protein aggregates; settings: in vitro at the cellular level; background, published in Nature; cited from earlier work
# cataract = settings: background, published in Nature; cited from earlier work
# [9] = 0.5 hour after 250 nmol dripped into each eye of New Zealand white rabbit
# [10] = 2 hours after 250 nmol dripped into each eye of New Zealand white rabbit
# [11] = 4 hours after 250 nmol dripped into each eye of New Zealand white rabbit
# [12] = 6 hours after 250 nmol dripped into each eye of New Zealand white rabbit
# [13] = in vivo, 250 nmol per eye, 0.5 hour after 250 nmol dripped into each eye of New Zealand white rabbit, read-out: Average concentration of the dripped compound itself in the aqueous humor
# [14] = in vivo, 250 nmol per eye, 2 hours after 250 nmol dripped into each eye of New Zealand white rabbit, read-out: Average concentration of the dripped compound itself in the aqueous humor
# [15] = listed as lanosterol prodrug 026
# [16] = 026 and kary uni p<0.01, lanosterol p>0.05, listed as lanosterol prodrug 026
# [17] = 026 and kary uni p<0.01, lanosterol p>0.05
smiles,measurement,setting,value
CC(C)=CCC[C@@H](C)[C@H]1CC[C@@]2(C)C3=C(CC[C@]12C)[C@@]1(C)CC[C@H](OC(=O)c2ccno2)C(C)(C)C1CC3 (stereo partly shown) [Compound 9],Average concentration of the dripped compound itself in the aqueous humor,[1]; [9],BQL
same,Average concentration of the dripped compound itself in the aqueous humor,[1]; [10],BQL
CC(=O)Oc1ccccc1C(=O)O[C@H]1CC[C@]2(C)C3=C(CCC2C1(C)C)[C@]1(C)CC[C@H]([C@H](C)CCC=C(C)C)[C@@]1(C)CC3 (stereo partly shown) [Compound 12],AUC (exposure amount) of the dripped compound itself in the aqueous humor,[1]; 250 nmol dripped into each eye of New Zealand white rabbit,BQL
same,Average concentration of the dripped compound itself in the aqueous humor,[1]; [11],BQL
same,Average concentration of the dripped compound itself in the aqueous humor,[1]; [12],BQL
same,concentration at 0.5 h,[1]; [13],60 nM
same,concentration at 2 h,[1]; [14],15.6 nM
CC(C)=CCC[C@@H](C)[C@H]1CC[C@@]2(C)C3=C(CC[C@]12C)[C@@]1(C)CC[C@H](OC(=O)c2ncon2)C(C)(C)C1CC3 (stereo partly shown) [Compound 10],Average concentration of the dripped compound itself in the aqueous humor,[1]; [9],BQL
same,concentration at 2 h,[1]; [14],37.9 nM
CC(C)=CCC[C@@H](C)[C@H]1CC[C@@]2(C)C3=C(CC[C@]12C)[C@@]1(C)CC[C@H](OC(=O)c2ccccc2O)C(C)(C)C1CC3 (stereo partly shown) [Compound 8],Average concentration of the dripped compound itself in the aqueous humor,[1]; [12],BQL
same,concentration at 0.5 h,[1]; [13],41 nM
same,concentration at 2 h,[1]; [14],33.3 nM
same,concentration at 4 h,"[1]; in vivo, 250 nmol per eye, 4 hours after 250 nmol dripped into each eye of New Zealand white rabbit, read-out: Average concentration of the dripped compound itself in the aqueous humor",25.5 nM
same,"cataract symptoms, slit lamp observation",[2]; [15],cataract symptoms were significantly reduced; also recorded: could alleviate the cataract symptoms
same,lens transparency of the right eye compared to the MC group,[3],significantly higher than that of the MC group
same,lens transparency of the right eye compared to the NC group,[3],still lower than that of the NC group
same,lens transparency of the administered right eye compared to the left eye (self-control),[3]; [15],significantly higher than that of the left eye; also recorded: improve lens transparency
same,lens GSH-PX activity compared to the MC group,[4]; [16],could increase the GSH-PX activity of the lens; also recorded: improve lens transparency and lens GSH-PX activity
same,effect on lens GSH-PX activity compared to the other treatment groups,[4],better than that of kary uni
same,"cataract symptoms, slit lamp observation",[5]; [15],cataract symptoms were significantly reduced; also recorded: could alleviate the cataract symptoms
same,lens transparency of the right eye compared to the MC group,[6],significantly higher than that of the MC group
same,lens transparency of the right eye compared to the NC group,[6],still lower than that of the NC group
same,lens transparency of the administered right eye compared to the left eye (self-control),[6]; [15],significantly higher than that of the left eye; also recorded: improve lens transparency
same,lens GSH-PX activity compared to the MC group,[7]; [16],could increase the GSH-PX activity of the lens; also recorded: improve lens transparency and lens GSH-PX activity
same,effect on lens GSH-PX activity compared to the other treatment groups,[7],better than that of kary uni
CC(C)=CCC[C@@H](C)[C@H]1CC[C@@]2(C)C3=C(CC[C@]12C)[C@@]1(C)CC[C@H](OC(=O)c2ccc([N+](=O)[O-])cc2)C(C)(C)C1CC3 (stereo partly shown) [Compound 4],Average concentration of the dripped compound itself in the aqueous humor,[1]; [9],BQL
same,Average concentration of the dripped compound itself in the aqueous humor,[1]; [10],BQL
same,Average concentration of the dripped compound itself in the aqueous humor,[1]; [11],BQL
same,Average concentration of the dripped compound itself in the aqueous humor,[1]; [12],BQL
CC(C)=CCC[C@@H](C)[C@H]1CC[C@@]2(C)C3=C(CC[C@]12C)[C@@]1(C)CC[C@H](O)C(C)(C)[C@@H]1CC3 [Lanosterol],concentration at 0.5 h,"[1]; aqueous humor, topical, 250 nmol per eye, 0.5 hour after 250 nmol dripped into each eye of New Zealand white rabbit, read-out: Average concentration of the dripped compound itself in the aqueous humor",106 nM
same,concentration at 2 h,"[1]; aqueous humor, topical, 250 nmol per eye, 2 hours after 250 nmol dripped into each eye of New Zealand white rabbit, read-out: Average concentration of the dripped compound itself in the aqueous humor",496 nM
same,concentration at 4 h,"[1]; aqueous humor, topical, 250 nmol per eye, 4 hours after 250 nmol dripped into each eye of New Zealand white rabbit, read-out: Average concentration of the dripped compound itself in the aqueous humor",300 nM
same,concentration at 6 h,"[1]; aqueous humor, topical, 250 nmol per eye, 6 hours after 250 nmol dripped into each eye of New Zealand white rabbit, read-out: Average concentration of the dripped compound itself in the aqueous humor",225 nM
same,penetration into the aqueous humor / permeability,"[1]; eye drops, rabbit, in words",could penetrate into the aqueous humor
same,"cataract symptoms, slit lamp observation",[2],did not change significantly
same,lens transparency of the administered right eye compared to the left eye (self-control),[3],no significant change in lens transparency
same,lens GSH-PX activity compared to the MC group,[4]; [17],no statistical difference compared to the MC group
same,effect on lens GSH-PX activity compared to the other treatment groups,[4],significantly lower than that of 026 and kary uni
same,"cataract symptoms, slit lamp observation",[5],did not change significantly
same,lens transparency of the administered right eye compared to the left eye (self-control),[6],no significant change in lens transparency
same,lens GSH-PX activity compared to the MC group,[7]; [17],no statistical difference compared to the MC group
same,effect on lens GSH-PX activity compared to the other treatment groups,[7],significantly lower than that of 026 and kary uni
same,effect on pre-formed lens protein aggregates,[8],significantly reduce pre-formed lens protein aggregates
same,effect on cataract and lens transparency in vivo,cataract,can reverse the condition of cataract
COC(=O)[C@H](C)NP(=O)(Oc1ccccc1)O[C@H]1CC[C@]2(C)C3=C(CCC2C1(C)C)[C@]1(C)CC[C@H]([C@H](C)CCC=C(C)C)[C@@]1(C)CC3 (stereo partly shown) [Compound 1],Average concentration of Lanosterol in the aqueous humor after the prodrug was dripped,[1]; 0.5 hour after 250 nmol prodrug dripped into each eye of New Zealand white rabbit,BQL
same,Average concentration of Lanosterol in the aqueous humor after the prodrug was dripped,[1]; 2 hours after 250 nmol prodrug dripped into each eye of New Zealand white rabbit,BQL
same,Average concentration of the dripped compound itself in the aqueous humor,[1]; [12],BQL
same,concentration at 0.5 h,[1]; [13],7.5 nM
same,concentration at 2 h,[1]; [14],8.6 nM
